Experimental data as given in patent publication US20060287383A1, “Substance exhibiting antidepressant property” (priority 2003, published 2006).

Columns and labels:
Assay type in all cases: in vivo
white outbred male mice = test: haloperidol catalepsy method
Description: As one of the indicators for antidepressant antagonism in relation to depriming effects of neuroleptics, neuroleptic-induced catalepsy is used. The maintenance of catalepsy in animals is assessed by their ability to maintain set or unusual poses for a definite time (Morpurgo C. Effects of antiparkinson drugs on phenothiazine induced catatonia reaction//Arch. Int Pharmacodyn., 1962, vol. 137 No 1-2, p. 84-94). Reduction or prevention of catalepsy is one of the factors showing antidepressant activity in studied substances.
The studies have been conducted with white outbred male mice having the weight from 18 to 24 grams. Haloperidol is introduced intraperitoneally in a single dose of 0.5 mg/kg. Phenotropyl has been introduced intraperitoneally in doses of 50, 100 and 200 mg/kg in 15 minutes after the introduction of haloperidol. The catalepsy intensity has been assessed by time (in seconds) of keeping the animals in an uncomfortable pose where their front legs have been put onto a bar having the height of 4 cm, in 60, 120 and 180 minutes after introducing the said medications. It is shown in Table 4 that phenotropyl clearly antagonizes haloperidol-induced catalepsy.

white outbred male rats [1] = test: reserpine depression method according to Bernardi; settings: for reduction of the diarrhea intensity / reduction of the intensity of ptosis: versus reserpine; for orientation and motion activity: reserpinized rats; for Diarrhea / Ptosis: 4-point scale; for Number of pulses in activity meter: three minutes, Varimex
Description: The method of reserpine depression according to Bernardi (Bernardi D., Paglialunga S., Jori A. Peripheral and central components in the hyperthermic effect of desipramine in rezerpinized rats//J. Pharm. Pharmacol., 1968, vol. 20, p. 204-209) is one of the basic models for assessing antidepressants in studies of new pharmaceuticals. The studies have been conducted with white outbred male rats having the weight from 200 to 240 grams. Reserpine has been introduced intraperitoneally, as a single dose of 2.5 mg/kg 2 hours before the introduction of phenotropyl (intraperitoneally, single doses of 25, 50, 100 and 200 mg/kg) and 3 hours before starting the study. The animals from the control group have received intraperitoneally distilled water only in the same volumes as the animals from the experimental groups. The antidepressant activity of phenotropyl has been assessed by its effect on sedation (suppression of the orientation and motion activity), intensity of ptosis and diarrhea, which have been caused by reserpine in the rats.
The orientation and motion activity of the animals has been studied for three minutes in a special activity meter (Varimex). The intensity of ptosis and diarrhea has been assessed on the standard 4-point scale (Mashkovsky M. D., Andreeva N. I., Polezhaeva A. I. Pharmacology of Antidepressants. Moscow, Medicine Publishers, 1983, p. 194-199).

white outbred male rats [2] = test: Porsolt method of behavioral despair (helplessness); settings: for Time of immobility: 10 minutes observation
Description: The Porsolt method of behavioral despair (helplessness) (Porsolt R. D., Anton G., Blavet N. et al. Behavioral despair in rats: a new model sensitive to antidepressant treatment//Europ. J. Pharmacol. 1978—v. 47.—p. 379-391) is the basic model for assessing antidepressants (Andreeva N. I., ? H. ? . the Methodical Guidelines for Studying Antidepressant Activity of Pharmaceuticals,//Guidebook for Experimental (Preclinical) Studies of New Pharmaceuticals of the RF Ministry of Public Health.—ZAO IIA “Remedium”.—2000.—p. 121-125). The studies have been conducted on white outbred male rats having the weight of 230-250 grams. The animals have been put into a water reservoir having 40 cm in diameter and the depth of 60 cm, for the rats cannot either run out of the reservoir or find a support in it. The water temperature has been maintained at the level of 25° C., the experiments have been conducted within the period from 12 A.M. to 4 P.M. After coming into water the animals begin displaying energetic motion activity aimed at finding a way out of the aversive (troublesome) situation, but then they stop their attempts and take a typical position in the water, while being fully immovable or making insignificant motions necessary for keeping their heads over the water surface. The depressive condition intensity rate in this test is the duration of immobility. The immobility condition has been assessed visually, determining its duration within 10 minutes of the observations. Substances having antidepressant activity alleviate this condition by reducing the immobility time.
The studies have been conducted using animals divided into groups. The animals from the experimental groups have received single doses of phenotropyl in the amounts of 25, 50 and 100 mg/kg or the standard amitriptyline medication in the amount of 10 mg/kg (ampoule solution made by Spofa, the Czech Republic) in the volume corresponding to the dose. The animals from the control group have received distilled water in the same dosage. All the substances have been given intragastrically 40 minutes before the an experiment.

[3] = reserpine 2.5 mg/kg + phenotropyl 25 mg/kg intraperitoneally
[4] = reserpine 2.5 mg/kg + phenotropyl 50 mg/kg intraperitoneally
[5] = reserpine 2.5 mg/kg + phenotropyl 100 mg/kg intraperitoneally
[6] = reserpine 2.5 mg/kg + phenotropyl 200 mg/kg intraperitoneally

For NC(=O)CN1CC(c2ccccc2)CC1=O (centres unmarked) [Phenotropyl, N-carbamoyl-methyl-4-phenyl-2-pyrrolidone], the “Catalepsy” value (white outbred male mice; haloperidol 0.5 mg/kg + phenotropyl 50 mg/kg intraperitoneally, 60 minutes) was 0.0 ± 0.0 s, the “Catalepsy” value (white outbred male mice; haloperidol 0.5 mg/kg + phenotropyl 50 mg/kg intraperitoneally, 120 minutes) was 8.2 ± 3.2 s and the “Catalepsy” value (white outbred male mice; haloperidol 0.5 mg/kg + phenotropyl 50 mg/kg intraperitoneally, 180 minutes) was 4.5 ± 2.5 s. For the same compound, the “Catalepsy” value (white outbred male mice; haloperidol 0.5 mg/kg + phenotropyl 100 mg/kg intraperitoneally, 60 minutes) was 0.0 ± 0.0 s, the “Catalepsy” value (white outbred male mice; haloperidol 0.5 mg/kg + phenotropyl 100 mg/kg intraperitoneally, 120 minutes) was 2.0 ± 1.0 s and the “Catalepsy” value (white outbred male mice; haloperidol 0.5 mg/kg + phenotropyl 100 mg/kg intraperitoneally, 180 minutes) was 0.0 ± 0.0 s. For the same compound, the “Catalepsy” value (white outbred male mice; haloperidol 0.5 mg/kg + phenotropyl 200 mg/kg intraperitoneally, 60 minutes) was 0.0 ± 0.0 s, the “Catalepsy” value (white outbred male mice; haloperidol 0.5 mg/kg + phenotropyl 200 mg/kg intraperitoneally, 120 minutes) was 11.8 ± 2.1 s and the “Catalepsy” value (white outbred male mice; haloperidol 0.5 mg/kg + phenotropyl 200 mg/kg intraperitoneally, 180 minutes) was 0.0 ± 0.0 s. The “reduction of catalepsy development level” value (white outbred male mice; phenotropyl 50 mg/kg, 120 minutes) was 3.2 times, the “reduction of catalepsy development level” value (white outbred male mice; phenotropyl 50 mg/kg, 180 minutes) was 13.2 times and the “reduction of catalepsy development level” value (white outbred male mice; phenotropyl 100 mg/kg, 120 minutes) was 14 times. For the same compound, the “development of catalepsy” value (white outbred male mice; phenotropyl dose of 100 or 200 mg/kg, 180 minutes) was “fully stopping its development”, the “development of catalepsy” value (white outbred male mice; phenotropyl doses of 50 and 100 mg/kg, 60 minutes) was “fully prevents the development of catalepsy” and the “reduction of the diarrhea intensity” value (white outbred male rats [1]; phenotropyl 50 mg/kg) was 1.7 times. The “reduction of the intensity of ptosis” value (white outbred male rats [1]; phenotropyl 50 mg/kg) was 1.4 times, the “reduction of the diarrhea intensity” value (white outbred male rats [1]; phenotropyl 100 mg/kg) was 2.4 times and the “reduction of the diarrhea intensity” value (white outbred male rats [1]; phenotropyl 200 mg/kg) was 2.2 times. The “reduction of the intensity of ptosis” value (white outbred male rats [1]; phenotropyl 100 and 200 mg/kg) was 1.8 times, the “orientation and motion activity” value (white outbred male rats [1]; phenotropyl doses of 25 and 50 mg/kg) was “increased” and the “orientation and motion activity” value (white outbred male rats [1]; phenotropyl doses of 100 and 200 mg/kg) was “reliably corresponds to the control level”. The Diarrhea (white outbred male rats [1]; [3]) was 2.0 ± 0.1 points, the Ptosis (white outbred male rats [1]; [3]) was 3.0 ± 0.2 points and the “Number of pulses in activity meter” value (white outbred male rats [1]; [3]) was 20.3 ± 1.4. The Diarrhea (white outbred male rats [1]; [4]) was 1.4 ± 0.2 points, the Ptosis (white outbred male rats [1]; [4]) was 2.5 ± 0.2 points and the “Number of pulses in activity meter” value (white outbred male rats [1]; [4]) was 22.8 ± 1.2. The Diarrhea (white outbred male rats [1]; [5]) was 1.0 ± 0.2 points, the Ptosis (white outbred male rats [1]; [5]) was 2.0 ± 0.2 points and the “Number of pulses in activity meter” value (white outbred male rats [1]; [5]) was 30.6 ± 2.4. For the same compound, the Diarrhea (white outbred male rats [1]; [6]) was 1.1 ± 0.2 points, the Ptosis (white outbred male rats [1]; [6]) was 2.0 ± 0.1 points and the “Number of pulses in activity meter” value (white outbred male rats [1]; [6]) was 33.9 ± 3.2. The “reduction in the time of immobility as compared to the control group” value (white outbred male rats [2]; doses of 50 and 100 mg/kg) was 1.6 times, the Time of immobility (white outbred male rats [2]; single dose 25 mg/kg intragastrically 40 minutes before) was 275.5 ± 84.2 s and the Time of immobility (white outbred male rats [2]; single dose 50 mg/kg intragastrically 40 minutes before) was 185.7 ± 49.5 s. The Time of immobility (white outbred male rats [2]; single dose 100 mg/kg intragastrically 40 minutes before) was 158.4 ± 43.2 s and the “antidepressant effect in behavioral despair test” value (white outbred male rats [2]; single doses of 50 and 100 mg/kg) was “pronounced antidepressant effect”.
